pEC50: −log10 of the molar value.

This assay concerns 3D7 P. falciparum strain. As to the kind of experiment: P. falciparum 3D7 parasite proliferation assay (SYBR Green). In kind it is cell-based. Conditions: Plasmodium falciparum, Erythrocyte; 3D7 P. falciparum infected human erythrocytes, 72 hours, SYBR Green fluorescence; read-out: Pf3D7 Activity. As for the experimental part: The following assay illustrates the invention without in any way limiting the scope of the invention. This parasite proliferation assay measures the increase in parasite DNA content using a DNA intercalating dye, SYBR Green®. 3D7 P. falciparum strain is grown in complete culturing media until parasitemia reaches 3% to 8% with O+ human erythrocytes. 20 μl of screening media is dispensed into 384 well assay plates. 50 nl of compounds of the invention (in DMSO), including antimalarial controls (mefloquine, pyrimethamine and artemisinin), are then transferred into the assay plates, as well as DMSO alone to serve as a negative control for inhibition. Then 30 μl of a suspension of a 3D7 P. falciparum infected erythrocytes in screening media is dispensed into the assay plates such that the final hematocrit is 2.5% with a final parasitemia of 0.3%. The plates are placed in a 37° C. incubator for 72 hours in a low oxygen environment containing 93% N2, 4% CO2, and 3% O2 gas mixture. 10 μl of lysis buffer (saponin, triton-X, EDTA) containing a 10× solution of SYBR Green […] in RPMI media is dispensed into the plates. The plates are lidded and kept at room temperature overnight for the lysis of the infected red blood cells. The fluorescence intensity is measured (excitation […], emission 530 nm) using the Envision™ system (Perkin Elmer). The percentage inhibition of 50%, EC50, is calculated for each compound.
For `Cc1ccc2c(C)c(-c3cncc(C(=O)NCC(C)(C)N)n3)[nH]c2c1` [Example 45, N-(2-Amino-2-methylpropyl)-6-(3,6-dimethyl-1H-indol-2-yl)pyrazine-2-carboxamide], the pEC50 is above 8.00. Consider `Cc1c(-c2cncc(C(=O)NCC(C)(C)N)n2)[nH]c2ccc(Cl)cc12` [Example 12, N-(2-amino-2-methylpropyl)-6-(5-chloro-3-methyl-1H-indol-2-yl)pyrazine-2-carboxamide], for which the pEC50 was 7.00 to 8.00. In the case of `Cc1ccc2[nH]c(-c3cncc(C(=O)NCC(C)(C)N)n3)cc2c1` [Example 26, N-(2-amino-2-methylpropyl)-6-(5-methyl-1H-indol-2-yl)pyrazine-2-carboxamide], the pEC50 is 7.00 to 8.00.

For the compound `CN(C)C(=O)c1cc2[nH]c(-c3cncc(C(=O)NCC(C)(C)N)n3)cc2s1` [Example 109, 5-(6-((2-amino-2-methylpropyl)carbamoyl)pyrazin-2-yl)-N,N-dimethyl-4H-thieno[3,2-b]pyrrole-2-carboxamide], the pEC50 is below 7.00. The result for `COC(=O)c1ccc2[nH]c(-c3cncc(C(=O)NCC(C)(C)N)n3)c(C)c2c1` [Example 48, Methyl 2-(6-((2-amino-2-methylpropyl)carbamoyl)pyrazin-2-yl)-3-methyl-1H-indole-5-carboxylate] reads 7.00 to 8.00.

Regarding `Cc1c(-c2cncc(C(=O)NCC3(N)CC(F)(F)C3)n2)[nH]c2cc(Cl)c(F)cc12` [Example 82, N-((1-amino-3,3-difluorocyclobutyl)methyl)-6-(6-chloro-5-fluoro-3-methyl-1H-indol-2-yl)pyrazine-2-carboxamide], the pEC50 is 7.00 to 8.00. For the compound `CC(C)(N)CNC(=O)c1cncc(-c2cc3ccc(Cl)c(F)c3[nH]2)n1` [Example 11, N-(2-amino-2-methylpropyl)-6-(6-chloro-7-fluoro-1H-indol-2-yl)pyrazine-2-carboxamide], the pEC50 is 7.00 to 8.00. In the case of `CC(C)(N)CNC(=O)c1cncc(-c2cc3cc(Cl)ncc3[nH]2)n1` [Example 39, N-(2-amino-2-methylpropyl)-6-(5-chloro-1H-pyrrolo[2,3-c]pyridin-2-yl)pyrazine-2-carboxamide] it was below 7.00; in that of `CC(C)(N)CNC(=O)c1cncc(-c2cc3ccc(C#N)cc3[nH]2)n1` [Example 34, N-(2-amino-2-methylpropyl)-6-(6-cyano-1H-indol-2-yl)pyrazine-2-carboxamide], below 7.00.

In the case of `Cc1c(-c2cncc(C(=O)NCC(C)(C)N)n2)[nH]c2cc(Cl)ccc12` [Example 7, N-(2-amino-2-methylpropyl)-6-(6-chloro-3-methyl-1H-indol-2-yl)pyrazine-2-carboxamide], the pEC50 was above 8.00. In the case of `Cc1c(-c2cncc(C(=O)NCC(C)(C)N)n2)[nH]c2cc(OC(F)F)ccc12` [Example 69, N-(2-Amino-2-methylpropyl)-6-(6-(difluoromethoxy)-3-methyl-1H-indol-2-yl)pyrazine-2-carboxamide] it was 7.00 to 8.00; in that of `CC(C)(N)CNC(=O)c1cncc(-c2cc3cc(F)ccc3[nH]2)n1` [Example 27, N-(2-amino-2-methylpropyl)-6-(5-fluoro-1H-indol-2-yl)pyrazine-2-carboxamide], 7.00 to 8.00.

As for `CC(C)(N)CNC(=O)c1cncc(-c2cc3ccncc3[nH]2)n1` [Example 43, N-(2-amino-2-methylpropyl)-6-(1H-pyrrolo[2,3-c]pyridin-2-yl)pyrazine-2-carboxamide], the pEC50 is below 7.00.

Take `COc1cccc2[nH]c(-c3cncc(C(=O)NCC(C)(C)N)n3)cc12` [Example 30, N-(2-amino-2-methylpropyl)-6-(4-methoxy-1H-indol-2-yl)pyrazine-2-carboxamide]: the pEC50 is below 7.00.

Regarding `CC(C)(N)CNC(=O)c1cncc(-c2cc3cc(C#N)ccc3[nH]2)n1` [Example 104], the pEC50 is below 7.00. On to `Cc1c(-c2cncc(C(=O)NC34CC(N)(C3)C4)n2)[nH]c2ccccc12` [Example 87, N-(3-aminobicyclo[1.1.1]pentan-1-yl)-6-(3-methyl-1H-indol-2-yl)pyrazine-2-carboxamide], for which the pEC50 is 7.00 to 8.00. The result for `Cc1c(-c2cncc(C(=O)NCCC(C)(C)N)n2)[nH]c2ccc(OC(F)(F)F)cc12` [Example 59, N-(3-amino-3-methylbutyl)-6-(3-methyl-5-(trifluoromethoxy)-1H-indol-2-yl)pyrazine-2-carboxamide] reads above 8.00; that for `Cc1c(-c2cncc(C(=O)NC3CNC3)n2)[nH]c2ccccc12` [Example 91, N-(azetidin-3-yl)-6-(3-methyl-1H-indol-2-yl)pyrazine-2-carboxamide], below 7.00; that for `Cc1c(-c2cncc(C(=O)N[C@H]3CCC[C@@H]3N)n2)[nH]c2cc(Cl)c(F)cc12` [Example 77, N-((1S,2S)-2-Aminocyclopentyl)-6-(6-chloro-5-fluoro-3-methyl-1H-indol-2-yl)pyrazine-2-carboxamide], above 8.00. The result for `Cc1c(-c2cncc(C(=O)NCC(C)(C)N)n2)[nH]c2cc(OC(F)(F)F)ccc12` [Example 8, N-(2-amino-2-methylpropyl)-6-(3-methyl-6-(trifluoromethoxy)-1H-indol-2-yl)pyrazine-2-carboxamide] reads above 8.00. The result for `Cc1c(-c2cncc(C(=O)N[C@H]3CC[C@H](N)CC3)n2)[nH]c2ccc(OC(F)(F)F)cc12` [Example 65, N-((1r,4r)-4-aminocyclohexyl)-6-(3-methyl-5-(trifluoromethoxy)-1H-indol-2-yl)pyrazine-2-carboxamide] reads 7.00 to 8.00. As for `CC(C)(N)CNC(=O)c1cncc(-c2cc3ccc(OC(F)(F)F)cc3[nH]2)n1` [Example 47, N-(2-amino-2-methylpropyl)-6-(6-(trifluoromethoxy)-1H-indol-2-yl)pyrazine-2-carboxamide], the pEC50 was 7.00 to 8.00.

`Cc1ccc2[nH]c(-c3cncc(C(=O)NCC(C)(C)N)n3)c(C)c2c1` [Example 15, N-(2-amino-2-methylpropyl)-6-(3,5-dimethyl-1H-indol-2-yl)pyrazine-2-carboxamide]: the pEC50 is 7.00 to 8.00. `Cc1c(-c2cncc(C(=O)N[C@@H]3CCCC[C@@H]3N)n2)[nH]c2ccccc12` (racemic) [Example 98, (rac)-N-((1r,2s)-2-aminocyclohexyl)-6-(3-methyl-1H-indol-2-yl)pyrazine-2-carboxamide]: the pEC50 is below 7.00. For `Cc1c(-c2cncc(C(=O)NCC(C)(C)C)n2)[nH]c2ccccc12` [Example 68, 6-(3-methyl-1H-indol-2-yl)-N-neopentylpyrazine-2-carboxamide], the pEC50 is below 7.00. Regarding `Cc1c(-c2cncc(C(=O)NCC(C)(C)O)n2)[nH]c2ccccc12` [Example 100, N-(2-hydroxy-2-methylpropyl)-6-(3-methyl-1H-indol-2-yl)pyrazine-2-carboxamide], the pEC50 was below 7.00.

For `CC(C)(N)CNC(=O)c1cncc(-c2cc3cc(OC(F)(F)F)ccc3[nH]2)n1` [Example 2, N-(2-Amino-2-methylpropyl)-6-(5-(trifluoromethoxy)-1H-indol-2-yl)pyrazine-2-carboxamide], the pEC50 was 7.00 to 8.00. As to `Cc1c(-c2cncc(C(=O)NCCN)n2)[nH]c2ccc(OC(F)(F)F)cc12` [Example 60, N-(2-aminoethyl)-6-(3-methyl-5-(trifluoromethoxy)-1H-indol-2-yl)pyrazine-2-carboxamide], the pEC50 is 7.00 to 8.00.

For the compound `Cc1c(-c2cncc(C(=O)N[C@@H]3CCCC[C@H]3N)n2)[nH]c2ccccc12` (racemic) [Example 101, (rac)-N-((1r,2r)-2-aminocyclohexyl)-6-(3-methyl-1H-indol-2-yl)pyrazine-2-carboxamide], the pEC50 is below 7.00. The result for `COc1ccc2cc(-c3cncc(C(=O)NCC(C)(C)N)n3)[nH]c2c1` [Example 31, N-(2-amino-2-methylpropyl)-6-(6-methoxy-1H-indol-2-yl)pyrazine-2-carboxamide] reads below 7.00; that for `Cc1cc2[nH]c(-c3cncc(C(=O)NCC(C)(C)N)n3)c(C)c2s1` [Example 73, N-(2-amino-2-methylpropyl)-6-(2,6-dimethyl-4H-thieno[3,2-b]pyrrol-5-yl)pyrazine-2-carboxamide], 7.00 to 8.00. Turning to `CCOC(=O)c1cc2[nH]c(-c3cncc(C(=O)NCC(C)(C)N)n3)c(C)c2s1` [Example 72, Ethyl 5-(6-((2-amino-2-methylpropyl)carbamoyl)pyrazin-2-yl)-6-methyl-4H-thieno[3,2-b]pyrrole-2-carboxylate], the pEC50 is above 8.00. Consider `CC(C)(N)CNC(=O)c1cncc(-c2cc3c(Cl)nccc3[nH]2)n1` [Example 41, N-(2-amino-2-methylpropyl)-6-(4-chloro-1H-pyrrolo[3,2-c]pyridin-2-yl)pyrazine-2-carboxamide], for which the pEC50 was below 7.00. For `COc1ccc2[nH]c(-c3cncc(C(=O)NCC(C)(C)N)n3)cc2c1` [Example 32, N-(2-amino-2-methylpropyl)-6-(5-methoxy-1H-indol-2-yl)pyrazine-2-carboxamide], the pEC50 is below 7.00. With `N[C@H]1CC[C@H](NC(=O)c2cncc(-c3cc4cc(OC(F)(F)F)ccc4[nH]3)n2)CC1` [Example 67, N-((1r,4r)-4-aminocyclohexyl)-6-(5-(trifluoromethoxy)-1H-indol-2-yl)pyrazine-2-carboxamide], the pEC50 was below 7.00.
